Measurements: patent US20100093642A1, “NOVEL POLYPEPTIDES” (priority 2006, published 2010)
Values after ≈ are worked out from the molar mass of the structure shown. Read-outs that look alike come from different tables or passages of the source. Residues, ends and D or L forms follow the SMILES beside them. No end group written: not given here.

What was measured:
E. coli (ATCC 25922) = format: cell-based, Escherichia coli
Protocol: (§1) The antibacterial activities of the different peptides were determined by continuous monitoring of bacterial growth with a Bioscreen C microbiology reader (Labsystems Oy, Helsinki, Finland). The test was performed in 100-well flat-bottomed honeycomb plates, in which 50 μl of test fractions were incubated with 50 μl of a suspension of an actively growing culture of bacteria diluted in Mueller Hinton medium to a starting concentration of 3×10^4 cells per ml. […] [NT] 13032) and S. aureus (ATCC 9144), were chosen as test bacteria. […] Polymyxin B (Sigma, St.

Pseudomonas aeruginosa = format: cell-based
Protocol: as §1

[1] = test system: C. glutamicum (ATCC 13032); format: cell-based, Corynebacterium glutamicum
Protocol: as §1

S. aureus (ATCC 9144) = format: cell-based, Staphylococcus aureus; conditions: ATCC 9144
Protocol: as §1

Botrytis cinerea 101 = conditions: 48 h
Protocol: (§2) The various derivates of P17 (brominated and non-brominated) were tested for their ability to inhibit fungal growth of the yeast strains Saccaharomyces cerevisiae sp, Candida albicans (ATCC 10231) and Rodotorula sp., and the filamentous strains Botrytis cinerea 101, Penicillium rogveforti, and Fusarium sp. All strains, except C. albicans, were a gift from Prof. A. Tronsmo (The Norwegian University of Life Sciences, Ås, Norway). The fungi were cultivated on potato dextrose agar, supplemented with 2% glucose, at room temperature. Before antifungal testing, the fungi were dissolved in potato dextrose broth (Difco) at half-strength. Cell concentration was determined and adjusted after counting in a Bürker chamber. The filamentous fungi were filtered through a piece of cotton before counting. An aliquot of 50 μl of fungal spores (final concentration 2×10^5 spores per ml) were inoculated in microtiter plates (96 wells) along with 50 μl peptide solution. Peptides, dissolved in distilled water, were tested at final concentrations (two-fold dilutions) ranging from 50 μM to 0.1 μM. Cultures were grown in the dark (without shaking) and with a moist chamber at 25° C. (37° C. for C. albicans). Growth inhibition was determined microscopically after 48 h of incubation. MIC was determined as the lowest concentration of peptide resulting in 50% inhibition of visible growth.

[2] = test system: Candida albicans (ATCC 10231); conditions: ATCC 10231, 48 h
Protocol: as §2

Saccharomyces cerevisiae = conditions: 48 h
Protocol: as §2

[3] = test system: human breast malignant carcinoma cell line MCF-7; format: cell-based; conditions: 24 hours, maximum 200 μg/ml
Protocol: (§3) The cytotoxic effects of the peptides on different human tumour cells were measured using the MTT colorimetric assay (Mosmann, 1983). […] Dissolved MIT is converted to an insoluble purple formazan by cleavage of the tetrazolium ring by dehydrogenase enzymes. This water insoluble formazan can be solubilized using isopropanol or other solvents and the dissolved material is measured spectrophotometrically. The absorbance was measured as a function of concentration of converted dye. The conversion of the soluble dye to the insoluble purple formazan is utilized in assays for measurement of cell proliferation. […] We used this assay to measure the degree of cell death caused by the peptides. MCF-7 was maintained in EMEM, A2058 in DMEM and […]-29 in RPMI-1640 medium supplemented with 10% heat inactivated […] and 1% L-glutamine-L-alanine in a humidified atmosphere of 5% CO2 at 37° C. The human embryonic fibroblast cell line, MRC-5 (which is normal fibroblasts), was cultured as a monolayer in MEM medium, under the same conditions as described for the tumour cell lines. Cells to be used in the assay were grown to a minimum of 75% confluency, trypsinated and split to single cell suspension, counted and centrifuged at 1500 rpm for 10 min. The cell pellet was resuspended to a concentration of 2×10^5 cells/ml (HT-29) or 1×10^5 (MRC-5, MCF7 and A2058) in DMEM without FBS and L-glutamine-L-alanine (assay-medium). All cell lines were routinely tested for mycoplasma infection using a PCR-based mycoplasma detection kit (MycoSensor PCR Assay Kit, Stratagene), following the supplier's instructions. All cell lines were mycoplasma free. The cytotoxicity was measured using the MTT method (Mosmann, 1983), with minor modifications. Different human tumour cells (1-2×10^5) were applied in 96-well culture plates in a volume of 100 μl DMEM medium and incubated at 37° C. for 24 hours. The medium was removed and the cells were treated with 100 μl of peptide solution (concentrations ranging from 0 to 200 μg/ml), diluted in a) RPMI-1640 medium supplemented with 5% heat inactivated FBS, or b) RPMI-1640 medium without FBS. The plates were incubated at 37° C. for 24 hours. Cells treated with Triton X-100 (1%) was used as positive control (100% killing) whereas cells plus medium only were used as negative control. […] A volume of 70 μl of the supernatant was then removed and […] (0.04 M HCl in isopropanol) added to each well. The plate was placed on a shaker for 1 hour at room temperature and read spectrophotometrically at 590 nm in a microtiter plate reader (DTX880 Multimode Detector, Beckman Coulter).

[4] = test system: human colorectal adenocarcinoma cell line HT-29; format: cell-based; conditions: 24 hours, maximum 200 μg/ml
Protocol: as §3

[5] = test system: human embryonic lung fibroblast cell line MRC-5; format: cell-based; conditions: normal fibroblasts, 24 hours, maximum 200 μg/ml
Protocol: as §3

[6] = test system: human skin malignant melanoma cell line A2058; format: cell-based; conditions: 24 hours, maximum 200 μg/ml
Protocol: as §3

[7] = test system: Salmonella enterica serovar typhimurium (ATCC 14028); experiment: Bacterial cell viability, lux luminescence and OD600, with or without LPS; format: cell-based; conditions: co-incubation with 2.5 μM Aeromonas salmonicida LPS
Text: To evaluate the effect of antimicrobial peptides on the viability of bacteria in a fast and reliable manner we used the lux CDABE operon from Photorhabdus luminescens as a reporter system in gram negative test bacteria and the modified luxABCDE operon in S. aureus (Vesterlund et al. 2004). Bacterial bioluminescence is directly dependent on metabolic activity, since reduction equivalents are needed to drive light emission. Any form of interruption of bacterial cell integrity or metabolism will therefore be detected as a reduction in light emission.
For the assay we used S. aureus (RN4220), E. coli K-12 and Salmonella enterica serovar typhimurium (ATCC 14028) transformed with the respective lux-operon containing plasmids (Vesterlund et al. 2004).
For each experiment a fresh colony was picked from Luria-Bertani plates supplemented with 10 μg/ml of erythromycin in case of S. aureus and with 100 μg/ml of ampicillin in case of E. coli and S. enterica serovar Typhimurium. Each colony was suspended in 5 ml of Müller-Hinton medium with appropriate antibiotics. The culture was incubated over night at 37° C. in a shaking incubator. The next morning 0.5 ml of this culture was transferred to 30 ml fresh MH medium in an Erlenmeyer-flask supplemented with the respective antibiotic. The flask was incubated (200 rpm shaking; 37° C.) until an OD600 of 0.5-0.8 was reached. The culture was then diluted to an OD600 of about 0.02-0.03 before transfer to the 96 well opaque plates with optical bottom (Packard ViewPlate) used for the assay.
The synthesized peptides were dissolved in water and aliquots frozen at −18° C. until use. Twofold dilutions of test peptides (final concentrations ranging from 0.31 to 80 μM) were directly prepared in 96 well microtiter plates in a volume of 10 μl in water. 90 μl is of indicator bacteria in MH medium were added directly to the prepared and pre-warmed (30 minutes at 37° C.) plate before starting the measurement in a Victor multiplate reader (Perkin Elmer) at 37° C. Both OD600 and luminescence in counts per second (cps) were followed over 5 hours in measuring intervals of 5 minutes. The plates where shaken before each measurement (20 sec.; 5 mm orbital shaking; 10 sec waiting). The growth curves and light emission curves were drawn and evaluated to determine the MIC for each indicator strain. The MIC was defined as the concentration of test compound causing more than 50% reduction in bioluminescence (cps) or optical density (OD600) after 5 hours, compared to the growth control. Cecropin P1 was used as positive control. The results (table 14a-b) confirm the results obtained in example 2, showing a pronounced antibacterial effect of the longest peptide fragments. […] The partial peptides P17 HC (1-20), both bromated and unbromated, inhibit growth only in higher concentrations.
A second plate with an otherwise similar setup (as described for the luminescence assay in example 3) was prepared, but with addition of Aeromonas salmonicida LPS to the peptide dilutions before pre-warming. The LPS end concentration in each well was approximately 2.5 μM.

[8] = RPMI-1640 medium containing 5% FBS

Molecule | Minimal inhibitory concentration, E. coli (E. coli (ATCC 25922)) | Minimal inhibitory concentration, P. aeruginosa (Pseudomonas aeruginosa) | Minimal inhibitory concentration, C. glutamicum [1] | Minimal inhibitory concentration, S. aureus (S. aureus (ATCC 9144)) | Minimal inhibitory concentration (MIC), Botrytis cinerea (Botrytis cinerea 101) | Minimal inhibitory concentration (MIC), Candida albicans [2] | Minimal inhibitory concentration (MIC), Saccharomyces cerevisiae (Saccharomyces cerevisiae) | Antitumoral activity IC50, MCF-7 [3, 8] | Antitumoral activity IC50, MCF-7 ([3]; serum-free RPMI-1640 medium) | Antitumoral activity IC50, HT-29 [4, 8] | Antitumoral activity IC50, HT-29 ([4]; serum-free RPMI-1640 medium) | IC50, MRC-5 [5, 8] | IC50 ([5]; serum-free RPMI-1640 medium, read-out: IC50, MRC-5) | Antitumoral activity IC50, A2058 [6, 8] | IC50 ([6]; serum-free RPMI-1640 medium, read-out: Antitumoral activity IC50, A2058) | MIC, more than 50% reduction in optical density, S. enterica, P + LPS ([7]; OD600, 5 hours) | MIC, more than 50% reduction in luminescence, S. enterica, P + LPS ([7]; luminescence (cps), 5 hours)
GQRGCSALGF [P17 HC (21-30)] | >100 µM | >100 µM | >100 µM | >100 µM | >100 µM | >100 µM | >100 µM |  |  |  |  |  |  |  |  |  | 
NC(Cc1c[nH]c2cc(Br)ccc12)C(=O)O [6-D/L-Br-Trp, 6-Bromo-D/L-tryptophan, reference compound] |  |  |  |  |  |  |  | * (The symbol “*” denotes 30-50% killing at the highest concentration tested.) | * (The symbol “*” denotes 30-50% killing at the highest concentration tested.) | * (The symbol “*” denotes 30-50% killing at the highest concentration tested.) | * (The symbol “*” denotes 30-50% killing at the highest concentration tested.) | * (The symbol “*” denotes 30-50% killing at the highest concentration tested.) | 584 µM | * (The symbol “*” denotes 30-50% killing at the highest concentration tested.) | 655 µM |  | 
CC(C)[C@H](NC(=O)[C@H](CCCCN)NC(=O)[C@H](Cc1c[nH]cn1)NC(=O)[C@H](Cc1ccccc1)NC(=O)[C@@H](NC(=O)[C@H](CCCCN)NC(=O)[C@H](CCCCN)NC(=O)[C@H](Cc1ccccc1)NC(=O)C(Cc1c[nH]c2ccc(Br)cc12)NC(=O)CN)[C@@H](C)O)C(=O)O (stereo partly shown) [P17 HC-Br (1-10)] (HELM PEPTIDE1{G.[O=C(C(Cc1c[nH]c2ccc(Br)cc12)N[*:1])[*:2]].F.K.K.T.F.H.K.V}$$$$V2.0; N-terminus and C-terminus assumed) | 25 µM (≈ 33.9 µg/mL) | >50 µM |  | >100 µM | 50 µM (≈ 67.8 µg/mL) | 25 µM (≈ 33.9 µg/mL) | 25 µM (≈ 33.9 µg/mL) |  |  |  |  |  |  |  |  | 40 µM | 20 µM
GWFKKTFHKV [P17 HC (1-10)] | 100 µM | 100 µM | 12.5 µM | >100 µM | 100 µM | 25 µM | 25 µM |  |  |  |  |  |  |  |  |  | 
GWFKK [P17 HC (1-5)] | >100 µM | >100 µM | >100 µM | >100 µM | >100 µM | >100 µM | >100 µM |  |  |  |  |  |  |  |  |  | 
NCCCC[C@H](NC(=O)[C@H](CCCCN)NC(=O)[C@H](Cc1ccccc1)NC(=O)C(Cc1c[nH]c2ccc(Br)cc12)NC(=O)CN)C(=O)O (stereo partly shown) [P17 HC-Br (1-5)] (HELM PEPTIDE1{G.[O=C(C(Cc1c[nH]c2ccc(Br)cc12)N[*:1])[*:2]].F.K.K}$$$$V2.0; N-terminus and C-terminus assumed) | 25 µM (≈ 18.6 µg/mL) | >50 µM |  | >100 µM | >100 µM | >100 µM | >100 µM |  |  |  |  |  |  |  |  |  | 
